Patent US20090318354A1, “Use of at least one isoform of progesterone receptor membrane component 1 (PGRMC1)” (PROTEOSYS AG, priority 2006, published 2009)

What was measured:
MCF7 breast cancer cells = experiment: ATP-TCA cell viability assay in MCF7 cells and MCF7 cells stably expressing PGRMC1 WT or mutants; type: cell-based, human
AKT = conditions: S56A/S180A and Y179F/S180A mutants, H2O2 even at 1 mM
Excerpt: Antibodies employed were specific for phosphorylated AKT (top), for the polypeptide backbone of AKT (middle), or for the HA-tag on the respective exogenously expressed PGRMC1 constructs.

[1] = test system: breast cancer exhibiting a positive ER status; conditions: patients suffering from breast cancer exhibiting a positive ER status; cited from earlier work

## OO [H2O2, hydrogen peroxide]
MCF7 breast cancer cells; MCF7 cells, 50 μM H2O2, RPMI with 10% FCS
  cell viability: reduced cell viability
AKT
  phosphorylation of AKT upon H2O2 treatment: neither of the mutants that survived H2O2 treatment in FIG. 10B exhibited phosphorylation of AKT

## CC(=O)[C@H]1CC[C@H]2[C@@H]3CCC4=CC(=O)CC[C@]4(C)[C@H]3CC[C@]12C [Progesterone, progesterone]
MCF7 breast cancer cells; PGRMC1-WT cell line, progesterone 10^-7 M, 5 days, charcoal-treated FCS
  proliferative effect relative to other cells: marginal proliferative effect
MCF7 breast cancer cells; cells generally, progesterone 10^-7 M, charcoal-treated FCS, 5 days
  viability of cells: not affected greatly

## CC[C@H](C)C(=O)O[C@H]1C[C@@H](C)C=C2C=C[C@H](C)[C@H](CC[C@@H]3C[C@@H](O)CC(=O)O3)[C@H]21 [lovastatin]
MCF7 breast cancer cells; PGRMC1 Y179F/S180A mutant, lower concentrations of lovastatin
  viability: improved viability
MCF7 breast cancer cells; all cell lines, high levels of lovastatin, 2 days, charcoal-treated FCS
  viability: reduced

## CC/C(=C(\c1ccccc1)c1ccc(OCCN(C)C)cc1)c1ccccc1 [tamoxifen]
MCF7 breast cancer cells; clone S56A/S180A, comparable to wild-type PGRMC1 control or native MCF7 cells
  resistance of clone to Tamoxifen: exhibited resistance
MCF7 breast cancer cells; clone S180A
  susceptibility of clone to Tamoxifen: highly susceptible
MCF7 breast cancer cells; tamoxifen 10^-8 M, charcoal-treated FCS, 5 days
  viability of cells: reduced viability
[1]
  cases in which treatment is effective: approximately 50%

## estrogen
MCF7 breast cancer cells; estrogen 10^-9 M added to RPMI with charcoal-treated FCS, 5 days
  viability of cells: improved
MCF7 breast cancer cells; estrogen 10^-9 M plus tamoxifen 10^-8 M
  rescue of impaired viability in the presence of tamoxifen: could not rescue

## methyl-β-cyclodextrin
MCF7 breast cancer cells; cells expressing all PGRMC1 mutants except S180A, 5 mM methyl-beta-cyclodextrin, 2 h, charcoal-treated FCS
  cell viability relative to MCF7 control cells: drastically reduced cell viability
